Laboratory results published in US4122181A, “Analgesic (3-micotinamido-N(quinolyl) anthranilates and method of use” (Pierre Fabre S.A., priority 1975, dated 1978).
Converted amounts (≈) assume the structure as drawn. Like-named read-outs stand apart in the source and are kept apart here.

Key:
[1] = Solubility characteristics
rats = assay type: in vivo, rat
Method: The ulceration index was determined in rats subjected to constraint for 7 hours.
The vehicle is a 4% aqueous solution of Tween 80 (TM - surface active agent).
The ulcerogenic index is calculated in accordance with the criteria established by […] et al. (Arch. Int. Pharmacodyn; 1971, 190, 6-13).

[2] = Acute toxicity (LD50, method of MILLER and TAINTER) in the conventional mouse; details: in vivo, mouse about 20 g
Method: The toxicology study was carried out on the conventional mouse weighing about 20 g.
The substances were administered orally and intraperitoneally. The LD50 is calculated by the method of MILLER and TAINTER (Proc. Soc. Exper. Biol. Med. 1944, 57, 261).

phenyl benzoquinone = assay: Analgesic activity by the technique of SIEGMUND et al. (phenyl benzoquinone); assay type: in vivo; details: read-out: ED50, analgesic activity
Method: The compounds are administered orally 30 minutes before the injection of the phenyl benzoquinone solution.

mice [3] = assay: Falling of mice placed on a turning horizontal bar (central properties); assay type: in vivo, mouse; details: bar of 4 cm diameter turning at 8 rpm
mice [4] = assay: Potentialization of anesthesia induced by chloral hydrate in mice; assay type: in vivo, mouse; details: 350 mg/kg chloral hydrate i.p., compound 100 mg/kg orally 30 minutes in advance
rabbit tooth = assay: Analgesic activity: electrical stimulation of rabbit tooth (CHEYMOL); assay type: in vivo; details: for time of maximum activity after administration: 100 mg/kg, administered orally; for analgesic activity compared with the control product (glaphenine): electrical stimulation of rabbit tooth
Source text: (b) Electrical stimulation of rabbit tooth in accordance with CHEYMOL - Therapie 1959, XIV, p. 350 to 360.

[5] = rats, oral, dose 100 (unit not given), N = 10, constraint for 7 hours
[6] = ip, intraperitoneal, read-out: LD50, intraperitoneally
[7] = oral, 30 minutes before injection of phenyl benzoquinone solution

SMILES: Nc1ccccc1C(=O)OCCNC(=O)c1cccnc1 [β-nicotinamido-ethyl anthranilate]
- solubility in alcohol ([1]; alcohol): 2.5%
- solubility in dimethyl acetamide ([1]; dimethyl acetamide): 100%
- solubility in water ([1]; water): insoluble

SMILES: O=C(OCC(O)CO)c1ccccc1Nc1ccnc2cc(Cl)ccc12 (stereo not shown) [Glaphenine, reference compound]
- Ulceration index (rats; [5]): 8.8
- LD50 [2, 6]: ~500 mg/kg
- LD50 ([2]; oral, read-out: LD50, orally): 1500 ± 500 mg/kg
- ED50 (phenyl benzoquinone; [7]): 36 mg/kg

SMILES: O=C(NCCOC(=O)c1ccccc1Nc1ccnc2cc(Cl)ccc12)c1cccnc1 [F 1531, β-nicotinamido-ethyl-N(7-chloro 4-quinolyl)-anthranilate]
- Ulceration index (rats; [5]): 5.3
- doses resulting in the falling of mice from turning horizontal bar (mice [3]): identical with the lethal doses
- effect on anesthesia induced by chloral hydrate (mice [4]): neither potentialization nor decrease in the anesthesia
- solubility ([1]; 1 n hcl): 200 mg/mL (≈ 448 mM)
- LD50 [2, 6]: > 500 mg/kg
- LD50 ([2]; oral, read-out: LD50, orally): 2800 ± 500 mg/kg
- time of maximum activity after administration (rabbit tooth): about 60 minutes
- analgesic activity compared with the control product (glaphenine) (rabbit tooth): better activity than the control product (glaphenine)
- ED50 (phenyl benzoquinone; [7]): 28 mg/kg

SMILES: CC(=O)Oc1ccccc1C(=O)O [Aspirin, reference compound]
- Ulceration index (rats; rat, in vivo, po): 13.1
- ED50 (phenyl benzoquinone; po): 100 mg/kg

SMILES: O=C(NCCOC(=O)c1ccccc1Nc1ccnc2cc(C(F)(F)F)ccc12)c1cccnc1 [F 1636, β-nicotinamido-ethyl-N(7-trifluoromethyl-4-quinolyl)-anthranilate]
- Ulceration index (rats; [5]): 4.2
- solubility in dimethyl formamide ([1]; dimethyl formamide): 8%
- LD50 [2, 6]: > 1000 mg/kg
- LD50 ([2]; oral, read-out: LD50, orally): 3200 ± 500 mg/kg
- time of maximum activity after administration (rabbit tooth): about 60 minutes
- analgesic activity compared with the control product (glaphenine) (rabbit tooth): better activity than the control product (glaphenine)
- ED50 (phenyl benzoquinone; [7]): 15 mg/kg
